Experimental data published in PubChem BioAssay AID2060617 (Molecular Pharmacology Branch, DTP, NCI, 2025).
Several values for one entry are separate records, joined by “and”; a condition that tells them apart may be missing. Equal entries are not always repeated.

Test system: 485368-065-R4-J2-PDC spheroids with HUVEC/MSC, viability
Test: Anticancer human tumor 485368-065-R4-J2-PDC patient-derived pancreatic carcinoma cell line growth inhibition [CLK]
Details: for viability, T/C: stronger effect = lower value
From the text: A high-throughput screen of multi-cell type tumor spheroids was designed to identify active combinations of […] and targeted small molecules. Complex spheroids include a stromal component modeled by human endothelial cells (HUVEC) and fibroblasts modeled by human mesenchymal stem cells (MSCs). The concentration ranges selected for each drug and investigational agent were based upon clinically achievable concentrations if the clinical Cmax of the agent was known.
Compounds. The drugs and investigational agents: cirtuvivint (SM08502; NSC835563), CC-671 (NSC850746), vemurafenib (NSC761431), tapotoclax (NSC804041), sotorasib (NSC818433), adagrasib (NSC831453), MRTX-1133 (NSC836407), BAY2416964 (NSC825713), copanlisib (NSC816437), inavolisib (NSC800729), abemaciclib (NSC768073), osimertinib (NSC779217), entinostat (NSC756642), eltanexor (KPT-8602, NSC794443), venetoclax (NSC766270), ceralasertib (NSC777638), bortezomib (NSC756655), olaparib (NSC753686), talazoparib (NSC767125), alisertib (NSC759677), peposertib (NSC802822), gemcitabine (NSC613327), 5-fluorouracil (NSC19893), SN-38 (NSC673596), oxaliplatin (NSC266046), paclitaxel (NSC125973), and doxorubicin (NSC123127), were obtained from the National Cancer Institute (NCI) Developmental Therapeutics Program Chemical Repository. The FDA-approved anticancer drug set is available from the Developmental Therapeutics Program at https://dtp.cancer.gov/organization/dscb/obtaining/available plates.htm. […] The stock solutions were prepared in dimethyl sulfoxide (DMSO, Sigma-Aldrich, St. Louis, MO, cat. D2650), except for the platinum complexes which were prepared in saline (Quality Biological, Gaithersburg, MD, cat. 114-055-101), at 800-fold the tested concentration and stored at -70 degrees C prior to their use. All drugs and investigational agents were tested over a range starting from a high concentration at or near the clinical Cmax and decreasing in half-log increments. If the clinical Cmax for an agent had not been determined, the highest concentration tested was 10 microM.
Cell Culture. All cells were maintained in an incubator at 37 degrees C and 5% CO2 with 95% humidity. The PDC lines were cultured according to standard operating procedures established by the NCI PDMR. Briefly, all PDCs were thawed and cultured in Matrigel-coated flasks prepared with a working solution of 1X Ham's F-12 nutrient mix, without supplementation (Invitrogen, Waltham, MA, cat. 11765054), 100 U/mL penicillin-streptomycin (Invitrogen, cat. 15140122), and 2.5% Matrigel (Corning Inc., Corning, NY, cat. 354248) for the first three passages. The 947758-054-R-J2-PDC line was cultured in 6B/Colon 1A media, which includes advanced DMEM/F-12 (Thermo Fisher Scientific, cat. 12634028), 10 mM HEPES (Thermo Fisher Scientific, cat. 15630080), 1X GlutaMAX supplement (Thermo Fisher Scientific, cat. 35050061), 0.1 mg/mL primocin (InvivoGen, cat. ant-pm-2), 10% defined fetal bovine serum, heat inactivated (HyClone Laboratories Inc., cat. SH30070.03HI), 1.25 mM N-Acetyl-L-cysteine (Sigma-Aldrich, cat. A9165), 10 mM nicotinamide (Sigma-Aldrich, cat. N0636), 1X B-27 supplement (Thermo Fisher Scientific, cat. 17504044), 1X N-2 supplement (Thermo Fisher Scientific, cat. 17502048), and 10 microM Y-27632 dihydrochloride (Tocris Bioscience, cat. 1254). The 876862-298-R-J1-PDC was cultured in 6E media, which includes all 6B/Colon 1A media components plus 50% L-WRN conditioned media (ATCC, cat. CRL-3276), 50 ng/mL recombinant human EGF recombinant protein (hEGF; Thermo Fisher Scientific, cat. PHG0311), 10 ng/mL recombinant human fibroblast growth factor 10 (hGFG-10; PeproTech, cat. 100-26), 1 ng/mL recombinant human fibroblast growth factor 2 (hFGF-2; PeproTech, cat. 100-18B), and 1 µM prostaglandin E2 (PGE2; Tocris, cat. 2296). The 227483-062-R1-J1-PDC line was cultured in Panc media, containing all 6E components except hFGF-2, with the addition of 500 nM SB-431542 (Selleckchem, cat. S1067) and 10 nM gastrin (Tocris, cat. 3006). […]

[1] = curve of first compound, second compound 0.0316 µM
[2] = curve of first compound, second compound 0.1 µM
[3] = curve of first compound, second compound 0.316 µM
[4] = curve of first compound, second compound 1 µM
[5] = curve of first compound, second compound 3.16 µM
[6] = curve of first compound, second compound 10 µM
[7] = second compound 0.0316 µM, first compound 0.0316 µM
[8] = second compound 0.0316 µM, first compound 0.1 µM
[9] = second compound 0.0316 µM, first compound 0.316 µM
[10] = second compound 0.0316 µM, first compound 1 µM
[11] = second compound 0.0316 µM, first compound 3.16 µM
[12] = second compound 0.0316 µM, first compound 10 µM
[13] = second compound 0.1 µM, first compound 0.0316 µM
[14] = second compound 0.1 µM, first compound 0.1 µM
[15] = second compound 0.1 µM, first compound 0.316 µM
[16] = second compound 0.1 µM, first compound 1 µM
[17] = second compound 0.1 µM, first compound 3.16 µM
[18] = second compound 0.1 µM, first compound 10 µM
[19] = second compound 0.316 µM, first compound 0.0316 µM
[20] = second compound 0.316 µM, first compound 0.1 µM
[21] = second compound 0.316 µM, first compound 0.316 µM
[22] = second compound 0.316 µM, first compound 1 µM
[23] = second compound 0.316 µM, first compound 3.16 µM
[24] = second compound 0.316 µM, first compound 10 µM
[25] = second compound 1 µM, first compound 0.0316 µM
[26] = second compound 1 µM, first compound 0.1 µM
[27] = second compound 1 µM, first compound 0.316 µM
[28] = second compound 1 µM, first compound 1 µM
[29] = second compound 1 µM, first compound 3.16 µM
[30] = second compound 1 µM, first compound 10 µM
[31] = second compound 3.16 µM, first compound 0.0316 µM
[32] = second compound 3.16 µM, first compound 0.1 µM
[33] = second compound 3.16 µM, first compound 0.316 µM
[34] = second compound 3.16 µM, first compound 1 µM
[35] = second compound 3.16 µM, first compound 3.16 µM
[36] = second compound 3.16 µM, first compound 10 µM
[37] = second compound 10 µM, first compound 0.0316 µM
[38] = second compound 10 µM, first compound 0.1 µM
[39] = second compound 10 µM, first compound 0.316 µM
[40] = second compound 10 µM, first compound 1 µM
[41] = second compound 10 µM, first compound 3.16 µM
[42] = second compound 10 µM, first compound 10 µM
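Also: spheroids exposed to compounds for seven days.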
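For viability, T/C in this document: 100% = DMSO vehicle control wells.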

For `COc1ccc([C@@H](O)c2cc(-c3ncnc4cc(N5CCOCC5)ccc34)c(F)cc2Cl)nn1` + CNC(=O)c1ccc(Nc2nc(OC3CCCC3)c3c(-c4ccc5nc(C)oc5c4)c[nH]c3n2)c(OC)c1, the IC50 [1] was > 10 µM, the IC50 [2] was > 10 µM and the IC50 [3] was > 10 µM. For the same compound, the IC50 [4] was > 10 µM, the IC50 [5] was > 10 µM and the IC50 [6] was > 10 µM. The viability, T/C [7] was 84.1%, the viability, T/C [8] was 96.7% and the viability, T/C [9] was 96.1%. For the same compound, the viability, T/C [10] was 103%, the viability, T/C [11] was 122% and the viability, T/C [12] was 83.7%. For the same compound, the viability, T/C [13] was 86.5%, the viability, T/C [14] was 99.7% and the viability, T/C [15] was 95.1%. It also gave a viability, T/C [16] of 103%, a viability, T/C [17] of 96.6% and a viability, T/C [18] of 87.6%. It also gave a viability, T/C [19] of 82.2%, a viability, T/C [20] of 77.8% and a viability, T/C [21] of 86.6%. It also gave a viability, T/C [22] of 73.6%, a viability, T/C [23] of 81.5% and a viability, T/C [24] of 66.5%. The viability, T/C [25] was 69.8%, the viability, T/C [26] was 70.9% and the viability, T/C [27] was 72.1%. For the same compound, the viability, T/C [28] was 67.6%, the viability, T/C [29] was 65.5% and the viability, T/C [30] was 59.2%. For the same compound, the viability, T/C [31] was 68.3%, the viability, T/C [32] was 62.7% and the viability, T/C [33] was 68.8%. The viability, T/C [34] was 57%, the viability, T/C [35] was 54.9% and the viability, T/C [36] was 51.4%. It also gave a viability, T/C [37] of 63.7%, a viability, T/C [38] of 70.4% and a viability, T/C [39] of 65.4%. The viability, T/C [40] was 57.5%, the viability, T/C [41] was 54.8% and the viability, T/C [42] was 50.1%.
With `O=c1[nH]cc(F)c(=O)[nH]1` + CNC(=O)c1ccc(Nc2nc(OC3CCCC3)c3c(-c4ccc5nc(C)oc5c4)c[nH]c3n2)c(OC)c1 the IC50 [1] was > 10 µM, the IC50 [2] was > 10 µM and the IC50 [3] was > 10 µM. The IC50 [4] was > 10 µM, the IC50 [5] was > 10 µM and the IC50 [6] was > 10 µM. The viability, T/C [7] was 82%, the viability, T/C [8] was 98.8% and the viability, T/C [9] was 80.4%. For the same compound, the viability, T/C [10] was 97.6%, the viability, T/C [11] was 95.1% and the viability, T/C [12] was 81%. It also gave a viability, T/C [13] of 95.5%, a viability, T/C [14] of 99.2% and a viability, T/C [15] of 97%. For the same compound, the viability, T/C [16] was 103%, the viability, T/C [17] was 93.6% and the viability, T/C [18] was 82.3%. It also gave a viability, T/C [19] of 81.4%, a viability, T/C [20] of 80.7% and a viability, T/C [21] of 81.3%. It also gave a viability, T/C [22] of 82%, a viability, T/C [23] of 87.3% and a viability, T/C [24] of 74.2%. The viability, T/C [25] was 79.2%, the viability, T/C [26] was 83.7% and the viability, T/C [27] was 75%. The viability, T/C [28] was 75.9%, the viability, T/C [29] was 71% and the viability, T/C [30] was 62.8%. For the same compound, the viability, T/C [31] was 69.4%, the viability, T/C [32] was 70.4% and the viability, T/C [33] was 69.5%. The viability, T/C [34] was 73.3%, the viability, T/C [35] was 68.1% and the viability, T/C [36] was 64.1%. The viability, T/C [37] was 63.3%, the viability, T/C [38] was 69.6% and the viability, T/C [39] was 72.1%. The viability, T/C [40] was 64.1%, the viability, T/C [41] was 67% and the viability, T/C [42] was 51.8%.
`COC1C=CCC(C)C(C)S(=O)(=O)NC(=O)c2ccc3c(c2)N(CC2CCC21)CC1(CCCc2cc(Cl)ccc21)CO3` (stereo not drawn) was tested, and the viability, T/C (compound 0.0316 µM) was 92.5% and 105%, the viability, T/C (compound 0.1 µM) was 109% and 93.5% and the viability, T/C (compound 0.316 µM) was 101% and 105%. For the same compound, the viability, T/C (compound 1 µM) was 132% and 123%, the viability, T/C (compound 3.16 µM) was 105% and the viability, T/C (compound 10 µM) was 86.1% and 74.7%. The IC50 (curve of compound) was > 10 µM.
With `CC1COCCN1c1cc(C2(S(C)(=N)=O)CC2)nc(-c2ccnc3[nH]ccc23)n1` (stereo not drawn) + CNC(=O)c1ccc(Nc2nc(OC3CCCC3)c3c(-c4ccc5nc(C)oc5c4)c[nH]c3n2)c(OC)c1 the IC50 [1] was > 10 µM, the IC50 [2] was > 10 µM and the IC50 [3] was > 10 µM. For the same compound, the IC50 [4] was > 10 µM, the IC50 [5] was > 10 µM and the IC50 [6] was > 10 µM. It also gave a viability, T/C [7] of 82.7%, a viability, T/C [8] of 96% and a viability, T/C [9] of 102%. It also gave a viability, T/C [10] of 101%, a viability, T/C [11] of 99.2% and a viability, T/C [12] of 107%. For the same compound, the viability, T/C [13] was 91.1%, the viability, T/C [14] was 95.1% and the viability, T/C [15] was 101%. It also gave a viability, T/C [16] of 97.6%, a viability, T/C [17] of 102% and a viability, T/C [18] of 97.4%. The viability, T/C [19] was 84.7%, the viability, T/C [20] was 85% and the viability, T/C [21] was 75.9%. The viability, T/C [22] was 89.7%, the viability, T/C [23] was 90.3% and the viability, T/C [24] was 82%. It also gave a viability, T/C [25] of 80.3%, a viability, T/C [26] of 78% and a viability, T/C [27] of 72.6%. For the same compound, the viability, T/C [28] was 81.2%, the viability, T/C [29] was 90.1% and the viability, T/C [30] was 73.4%. The viability, T/C [31] was 76.3%, the viability, T/C [32] was 78.2% and the viability, T/C [33] was 68%. For the same compound, the viability, T/C [34] was 72.7%, the viability, T/C [35] was 68.7% and the viability, T/C [36] was 54.1%. The viability, T/C [37] was 74%, the viability, T/C [38] was 70.6% and the viability, T/C [39] was 62.2%. The viability, T/C [40] was 71.6%, the viability, T/C [41] was 69% and the viability, T/C [42] was 59.6%.
